In US10821091B2, “Retinoid compositions and methods of increasing immune cell-mediated killing of IDH mutant cancer cells” (UNIVERSITY OF PITTSBURGH—OF THE COMMONWEALTH SYSTEM OF …, priority 2017, dated 2020):

Legend:
[1] = tested on: IDH mutant primary glioma neurospheres; assay: Differentiation of primary glioma neurospheres; assay type: cell-based, human; settings: for morphological changes: 1 μM ATRA
Protocol: Glioma cell culture. Resected tumors from Glioma patients (both IDH wt and mutant) were mechanically dissociated to form a single cell suspension. Contaminating RBCs were removed using an RBC lysis buffer (eBioscience) and cells were propagated into neural stem cells in Neurocult™ NS-A proliferation kit supplemented with 20 ng/mL Human Recombinant EGF, 10 ng/mL Human Recombinant bFGF) and 2 μg/mL Heparin Solution (Stemcell Technologies Canada Inc.). After 3 weeks in culture, neurospheres were moved to Complete Medium (CM) in order to propagate differentiation into adherent cell lines.
All-trans retinoic acid (ATRA) is a differentiating agent for multiple types of cancers, including IDH mutant acute myeloid leukemia (AML). Therefore, efficacy of ATRA as a differentiating agent in IDH mutant gliomas was evaluated. IDH mutant or WT primary glioma neurospheres were treated with 1 μM ATRA for 2, 7 or 14 days. At each time point, cells were evaluated for morphological changes and changes in their molecular profile. Vehicle (DMSO)-treated cells served as controls, while cells treated with 10% FBS served as differentiation (positive) controls.

IDH mutant tumors = assay: NK depletion (anti-NK1.1) experiment in tumor-bearing C57BL6/J nude mice; assay type: in vivo
Protocol: Mice. […] DMSO-treated mice were used as controls.
Anti-tumor effects of ATRA in vivo is dependent upon NK activity in vivo. Contrary to the delayed pro-differentiation effect of ATRA in vitro (FIG. 13A through 13D), the anti-tumor effects in vivo were more immediate. Thus, it was hypothesized that ATRA exercises alternate pathways to curb tumor growth. […] To further substantiate the role of NKs in anti-tumor effect of ATRA, a NK blocking experiment was performed in vivo. Briefly, IDH mutant or WT tumor-bearing C57BL6/J nude mice were injected with […] anti-NK1.1 (or control isotype) antibody intra-peritoneally on the first day of ATRA treatment. ATRA treatment was started when tumors were about 25 mm^2 in size and administered every other day.

[2] = tested on: diffuse IDH mutant glioma; assay: ATRA therapy in a human patient, MRI before and after; assay type: in vivo; settings: 40 mg/m2 ATRA, 21 days on, 7 days off, three months
Protocol: A patient with diffuse IDH mutant glioma was treated with 40 mg/m2 ATRA on a treatment cycle of 21 days on, 7 days off. MRI images of the patient's brain were performed before (FIG. 12A) and after (FIG. 12B) ATRA treatment.

IDH mutant gliomas = assay: Survival in RCAS tva immunocompetent glioma mouse model; assay type: in vivo, mice
Protocol: Immunocompetent mouse model. The RCAS/tva system was used to ectopically express muIDH1 (R132H) in PDGF-driven gliomas. RCAS retroviral vectors were used to transfer genes to specific cell types in vivo that express the receptor tva to develop a pair of isogenic mouse tumor models that differ only in IDH1 mutation status. Three RCAS vectors expressing PDGF, wtIDH1-shp53, or muIDH1 (R132H)-shp53 were constructed and used in three different Ntva mouse strains. Mice were injected with RCAS-PDGF-producing DF1 cells together with either DF1 cells producing RCAS-wtIDH1-shp53 (wtIDH1) or RCAS-mutantIDH1-shp53 (muIDH1). Tumors were generated from these injections with identical genomic backgrounds, with the initiating events differing only in IDH1 mutation status.

[3] = tested on: RBP1 in IDH mutant (HT-1080) cells; assay: RBP1 levels by qPCR in chondrosarcoma cells; assay type: cell-based; settings: 1 μM or 10 μM ATRA, 48 hours
Excerpt: IDH mutant tumor cells produce reduced amounts of RBP1 compared to WT IDH tumor cells (FIG. 11D).

[4] = tested on: NKG2D ligands in IDH mutant cells; assay: qPCR of NKG2D ligand expression in ATRA-treated glioma cells; assay type: cell-based, human; settings: 1 μM ATRA 48 hours, vs DMSO-treated cells
Protocol: All-trans Retinoic acid (ATRA) treatment of astrocytes and primary glioma cells. ATRA was purchased from Sigma Aldrich® and reconstituted in DMSO. ATRA was added at a 1 μM final concentration to cell culture medium for 48 hours. After treatment, the cells either lysed in Trizol™ for qPCR analysis, or were used in NK cytotoxicity assays.
Quantitative Real time RT-PCR. 5×10^5 IDH mutant and WT astrocytes, as well as patient glioma cells were lyzed in Trizol and RNA was extracted from the cells using the Chloroform extraction method. cDNA was transcribed from the RNA using iScript cDNA synthesis kit (BioRad). Real-time PCR was performed on an CFX96 Touch™ Real-Time PCR Detection System (Bio-Rad) equipped with a 96-well reaction plate. Briefly, 2 μL cDNA was added to 5 μL of the 2×SYBR Green PCR mastermix (Thermo Scientific), 800 nM of each primer, and water was added to 10 μL. The thermal denaturation protocol was run at the end of the PCR to determine the number of products that were present in the reaction. Reactions were typically run in triplicates. The cycle number at which the reaction crossed an arbitrarily-placed threshold (CT) was determined for each gene and the relative amount of each gene to 18 S rRNA was described using the equation 2^−ΔCT where ΔCT=(CTtargetRNA−CT18S rRNA).
ATRA induced increased cytotoxic killing of IDH mutant cells in an NKG2D-ligand dependent manner. The ability of ATRA to sensitize IDH mutant cells to killing by NK cells was evaluated. For this purpose, IDH mutant and WT cells were treated with 1 μM ATRA for 48 hours and assessed for killing by NK-92 cells (ATCC) at a 10:1 E:T ratio. […] Also, as observed in vivo, increased NK-92 killing in IDH mutant cells was dependent upon NKG2D engagement. […] ATRA-treated cells were also evaluated for expression of NKG2D ligands.

[5] = tested on: CCL2 and CXCL12 in IDH mutant cells; assay: Chemokine array on culture supernatants; assay type: cell-based, human
Protocol: ATRA increases chemotaxis towards IDH mutant cells in a CCL2-dependent manner. […] To confirm these findings, chemotaxis assays were performed in vitro. ATRA-treated IDH mutant or WT cells were plated in the bottom well of a transwell. Different immune cell subsets (as indicated) were placed in the top chamber at a 10:1 E:T ratio. After 48 hours, cells from the bottom chamber were harvested and analyzed by flow cytometry. […] To evaluate the mechanisms of changes in chemotaxis induced by ATRA, a chemokine array was performed. Supernatants from ATRA- (or DMSO)-treated WT and IDH mutant cultures were used to assess changes in chemokine expression using a chemokine array kit (R&D systems). Results were interpreted visually as well as quantified using an imaging software (ImageJ). […] To substantiate the role of CCL2 in NK and T cell chemotaxis, transwell assays were repeated as described earlier, in the presence of CCL2-blocking antibody (R&D systems).

CC1=C(/C=C/C(C)=C/C=C/C(C)=C/C(=O)O)C(C)(C)CCC1 [ATRA, all-trans retinoic acid]
morphological changes ([1]; 14 days): induced morphological changes in IDH mutant primary glioma neurospheres, but not WT neurospeheres
morphological changes ([1]; earlier time points): Minimal morphological changes
time of ATRA treatment after which differentiation occurred ([1]; IDH mutant glioma stem cells): > 10 days
levels of stem cell markers Sox2, CD133 and Nestin ([1]; IDH mutant neurospheres, ATRA 14 days, PCR (Nestin also flow cytometry)): significantly lower levels
levels of GFAP, astrocytic differentiation marker ([1]; IDH mutant neurospheres, ATRA 14 days, PCR and flow cytometry): increased levels of GFAP
levels of NKs in TILs by flow cytometry (IDH mutant tumors; ATRA-treated mice vs DMSO-treated controls): higher levels of NKs
tumor growth (IDH mutant tumors; IDH mutant tumor-bearing C57BL6/J nude mice, ATRA every other day, vs DMSO-treated controls): significantly slower tumor growth
tumor growth after depletion of NKs (anti-NK1.1) (IDH mutant tumors; IDH mutant tumor-bearing mice treated with ATRA): depletion of NKs abrogated the anti-tumor effects of ATRA
glioma tumor on MRI [2]: reduction in the size and severity of the glioma tumor
infiltration of NK cells in the tumor (immunohistochemistry) (IDH mutant gliomas; ATRA-treated mice): increased infiltration of NK cells in the tumor
survival (IDH mutant gliomas; mice bearing IDH mutant tumors, ATRA every alternate day for 21 days, vs vehicle-treated/IDH wild type): significantly longer survival
RBP1 levels [3]: increased RBP1 levels in IDH mutant chondrosarcoma cells in a dose dependent manner
expression of NKG2D ligand MICA [4]: increased expression
expression of NKG2D ligand MICB [4]: increased expression
expression of NKG2D ligand ULBP1 [4]: increased expression
expression of NKG2D ligand ULBP3 [4]: increased expression
levels of CXCL12 ([5]; ATRA-treated IDH mutant cells vs DMSO-treated controls): lower levels of CXCL12
CCL2 production ([5]; supernatants of ATRA- or DMSO-treated WT and IDH mutant cultures): CCL2 production was only observed in ATRA treated IDH mutant cells
